According to ChEMBL document CHEMBL4834476, “Potent antiviral activity of Agrimonia pilosa, Galla rhois, and their components against SARS-CoV-2” (2021):
Calls of active or inactive are those of the source. The rule behind the calls is not given here.

How the values were obtained:
SARS-CoV-2 [1] = assay: Antiviral activity against SARS-CoV-2 NCCP43326 infected in African green monkey Vero cells assessed as reduction in spike protein production at 1 to 25 ug/ml cells were infected with virus for 1 hr followed by wash-out period and later treated with compound and measured after 72 hrs by ELISA; format: functional, organism-based; details: Severe acute respiratory syndrome coronavirus 2, dose 1-25 µg/ml
SARS-CoV-2 [2] = assay: (§1) Antiviral activity against SARS-CoV-2 NCCP43326 infected in African green monkey Vero cells assessed as reduction in spike protein production at 1 to 25 ug/ml treated with compound for 1 hr post-infection followed by drug wash-out and measured at 72 hrs post-infection by ELISA; format: functional, organism-based; details: Severe acute respiratory syndrome coronavirus 2, dose 1-25 µg/ml
SARS-CoV-2 [3] = assay: as §1, with “inhibition of plaque formation” for “reduction in spike protein production”, “at” for “at 1 to”, “crystal violet staining analysis relative to control” for “ELISA”; format: functional; details: Severe acute respiratory syndrome coronavirus 2, NCCP43326, Vero
SARS-CoV-2 [4] = assay: Antiviral activity against SARS-CoV-2 NCCP43326 infected in African green monkey Vero cells assessed as inhibition of plaque formation at 1 to 25 ug/ml treated with compound for 1 hr post-infection followed by drug wash-out and measured at 72 hrs post-infection by crystal violet staining analysis; format: functional; details: for Activity: Severe acute respiratory syndrome coronavirus 2, dose 1-25 µg/ml
SARS-CoV-2 [5] = assay: Antiviral activity against SARS-CoV-2 NCCP43326 infected in African green monkey Vero cells assessed as inhibition of plaque formation at 0.125 to 0.5 ug/ml treated with compound for 1 hr post-infection followed by drug wash-out and measured at 72 hrs post-infection by staining analysis; format: functional, organism-based; details: Severe acute respiratory syndrome coronavirus 2, dose 0.125-0.5 µg/ml

| SMILES | Activity (SARS-CoV-2 [1]) | Activity (SARS-CoV-2 [2]) | inhibition at 25 µg/mL (SARS-CoV-2 [3]) [%] | Activity (SARS-CoV-2 [4]) | Activity (SARS-CoV-2 [5]) | inhibition (INH) (SARS-CoV-2 [4]; dose 1-25 µg/ml, at 1 to 25 µg/mL) [%] |
| --- | --- | --- | --- | --- | --- | --- |
| C[C@H]1[C@H](C)CC[C@]2(C(=O)O)CC[C@]3(C)C(=CC[C@@H]4[C@@]5(C)CC[C@H](O)C(C)(C)[C@@H]5CC[C@]43C)[C@H]12 [URSOLIC ACID] | Active | Active | 78.3 | Active |  |  |
| CCOC(=O)c1cc(O)c(O)c(O)c1 [ETHYLGALLATE] |  |  | 21.1 | Active |  |  |
| O=c1c(O)c(-c2ccc(O)c(O)c2)oc2cc(O)cc(O)c12 [QUERCETIN] | Active | Active | 67.2 | Active |  |  |
| O=C(OC[C@H]1O[C@@H](OC(=O)c2cc(O)c(O)c(O)c2)[C@H](OC(=O)c2cc(O)c(O)c(O)c2)[C@@H](OC(=O)c2cc(O)c(O)c(O)c2)[C@@H]1OC(=O)c1cc(O)c(O)c(O)c1)c1cc(O)c(O)c(O)c1 [PENTAGALLOYL GLUCOSE] | Active | Active | 100 |  | Active | 100 |
